Marks after values point to notes of the source that are not given here.
Columns and labels:
[1] = system: Chinese hamster V79-379 lung fibroblasts; assay: Uptake of phthalocyanines into V79 cells; conditions: for n Moles/10^6 Cells/μM (composite uptake value): V79 cells, average of all data, asterisk: listed value is for 1 μM, average would be higher
Description: Chinese hamster V79-379 lung fibroblasts were grown in monolayer culture in McCoy's 5A medium (Gibco Laboratories, Grand Island, N.Y.) augmented with 10% calf serum and buffered with 20 mM HEPES (pH 7.4).
Total uptake was determined by scraping the phthalocyanine-treated monolayer, collecting the cells on a glass-fiber filter, and extracting the phthalocyanine in ethanol, as previously described by Ramakrishnan, et al., 1989. (Ramakrishnan, N., M. E. Clay, M. F. Horng, A. R. Antunez, & H. H. Evans, “DNA Lesions and DNA Degradation in Mouse Lymphoma L5178Y Cells After Photodynamic Treatment Sensitized by Chloroaluminum Phthalocyanine”, Photochem. Photobiol, in press, 1989). The amount of drug was determined by absorption at 674 nm and expressed relative to the number of cells, as measured in a Coulter cell counter on an aliquot of the cell population. Controls included cells not treated with drug, medium alone, and drug-containing medium without cells.
The cells were treated with 1 μM AlPcCl (from Eastman Kodak, Rochester, N.Y.) or with phthalocyanine compositions I-VI (0.5-1.0 μM final concentration in the medium) for 18 hours by adding the appropriate volume of a 1.0 mM stock solution in dimethylformamide (DMF) to the culture medium. The growth medium was replaced with 4 mL Hank's balanced salt solution (HBSS), and the cells were irradiated. The light source was a 500 W tungsten-halogen lamp located approximately 29 inches below the surface of a glass exposure tray. The visible light administered to the cells was filtered to allow passage of only that portion of the visible spectrum above 600 nm (Lee Primary red filter No. 106, Vincent Lighting, Cleveland, Ohio). The fluence rate was approximately 0.074 kJ/m^2/s at the level of the cell monolayer.
V79 cells Chinese hamster lung fibroblasts were cultured using the cell culture methods described above. The phthalocyanines listed in table 2 were added to the cultures typically at concentrations of 1 μM, 2 μM, and/or 4 μM and incubated for 18 hours, after which aliquots of the cells were counted and other aliquots were collected on a glass fiber filter. When the filters were dry, the phthalocyanines were extracted into ethanol and the absorption determined at the peak wavelength, usually 668 nm. Values were converted to nmoles taken up by 10^6 cells, using an extinction coefficient of 2.93×10^5.

[2] = system: Chinese hamster V79-379 lung fibroblasts; assay: Clonogenic cell survival of V79 cells after photodynamic treatment; assay type: cell-based; conditions: for LD 90 (light dosage that kills 90% of cells): 0.5 μM, 18 hours, 675 nm red light, VII# preplated data only, XXI* not totally soluble at 0.5 mM
Description: Cells were irradiated at a density of approximately 2×10^6 per 25 cm^2 flask. Immediately after irradiation, the cell monolayer was treated with trypsin, and appropriate aliquots were plated in triplicate to give 100 to 200 colonies in each 10-cm Petri dish. Cell survival was determined by the ability of the cells to form colonies containing at least 50 cells. The response of cells treated with 1 μM AlPcCl and light was compared in each experiment.
Photocytotoxicity of the phthalocyanines compounds I to VI was also assessed by clonogenic assay (Table 1, FIG. 1). In all experiments, 1 μM AlPcCl was included for comparison purposes. From the survival curves (FIG. 1), the fluence reducing the cell survival to 10% (F10) was obtained. The ratio of the F10 for AlPcCl and the F10 for the test compound is recorded in Table 1. Compounds I and II appear to be nearly as efficient photosensitizers as AlPcCl, while compound IV (assayed at half the concentration) was almost twice as efficient as the standard AlPcCl. […] However, in spite of the low efficiency of compound V in inhibiting cell growth, survival measurements were made for this compound, because it was taken up into V79 cells somewhat more efficiently than compounds III and VI.
In order to take differences in cellular uptake into consideration in the assessment of the relative efficiency of these phthalocyanines as photosensitizers of V79 cells, the survival data were replotted against the product of intracellular phthalocyanine concentration and light fluence (FIG. 2). From these curves, the product of intracellular concentration and light fluence reducing survival to 10% (CF10) was obtained, and comparisons of the values for AlPcCl and the test compounds are recorded in Table 1. By this and the other criteria, compound IV appears to be the most efficient photosensitizer. However, when consideration is given to the lesser cell uptake of compound V, it appears to be about as strong a photosensitizer as compound IV.
Using the cell culture methods described above, V79 cells Chinese hamster lung fibroblasts were treated with either 0.5 or 1.0 μM of the phthalocyanines listed in Table 3. About 18 hours thereafter, the cells were irradiated with increasing doses of 675 nm broad band red light from a 500 W tungsten-halogen lamp fitted with a 600 nm high pass filter, to determine the light dosage that would kill 90% of the phthalocyanine treated cells. Where 90% of the cells were not killed, the maximum percent of cells killed were determined, (expressed as % survival) and the related light dosage recorded.

L5178Y cells = assay: Induction of apoptosis (DNA ladder) in L5178Y cells after PDT; assay type: cell-based, Mouse; conditions: for C × F Ld90, Minimum Demonstrated Condition to Induce Apoptosis: product of concentration and fluence
[3] = system: RIF-1 (radiation-induced fibrosarcoma) tumors; assay: PDT of RIF-1 implanted tumors; assay type: in vivo, C3H/HeN mice; parameters: key to Tumor Responses at 24 hours: complete: no evidence of any tumor mass in any animal; only the scar from the photodynamic therapy was evident.; near complete: evidence of any tumor mass in four or five animals; only some tumor mass in one or two animals.; substantial: a significant tumor shrinkage occurred in all animals. In some animals the tumor response was complete, yet in others the response was not complete.; moderate: some tumor shrinkage was evident in some animals. In animals with some tumor shrinkage, scar formation was evident.; slight: some tumor decrease occurred in one or two mice; conditions: 675 nm; for Doubling Time of Initial Tumor Volume after PDT: controls 4 days
Description: The relative effectiveness at reducing tumor volume of selected phthalocyanine compounds at a given dosage was compared in vivo. RIF-1, i.e., radiation-induced fibrosarcoma, tumors were implanted into the backs of C3H/HeN mice. One tumor was implanted per mouse. Each of the phthalocyanine compounds listed in Table 7 was sonicated and vortexed in corn oil to produce a suspension. When the tumors reached […] in diameter and 2-3 mm in thickness, each mouse received 1 mg/kg in 0.1 mL of the corn oil, of the phthalocyanine suspension. For comparison, select mice received a conventional photosensitizer; either 5 mg/kg of chloroaluminum phthalocyanine tetrasulfonate, herein also referred to as “AlPcTS” in phosphate buffered saline or 5 mg/kg of Photofrin®-II in 5% dextrose. Twenty-four hours after the photosensitizers were administered, the tumors were irradiated with visible radiation delivered by an argon-pumped dye laser. The mice that received a phthalocyanine photosensitizer received light having a wavelength of 675 nm and the mice that received the Photofrin® II photosensitizer received light having a wavelength of 630 nm. Each tumor received 135 J/cm^2 of radiation. Tumor size was measured every day using calipers. The initial tumor volume was 50±10 mm^3. Tumor volume was calculated according to the hemiellipsoid model by the formula: V=½(4π)/3×(½×(w/2))×h
• complete—no evidence of any tumor mass in any animal; only the scar from the photodynamic therapy was evident. • near complete—evidence of […] in four or five animals; only some tumor mass in one or two animals. • substantial—a significant tumor shrinkage occurred in all animals. In some animals the tumor response was complete, yet in others the response was not complete. • moderate—some tumor shrinkage was evident in some animals. In animals with some tumor shrinkage, scar formation was evident. • slight—some tumor decrease occurred in one or two mice.

[4] = system: Mouse lymphoma L5178y-R cells; assay: Clonogenic cell survival of PDT-treated LY-R cells; assay type: cell-based; conditions: 0.5 μM
Description: Mouse lymphoma L5178y-R (hereinafter also referred to as “LY-R”) cells were grown in suspension culture as described in Ramakrishnan N., Oleinick, N. L. Clay, M. E., Homg, M. F., Antunez, A. R., and Evans H. H., Photochem. Photobiol. 50, 373-378, 1989 and Agarwal, M. L., Clay, M. E., Harvey, E. J., Evans, H. H., Antunez, A. R., and Oleinick, N. L., Cancer Res., 51, 5993-5996, 1991.
The cells were used while in exponential growth. Stock solutions of either 0.5 or 1 mM of PcIV, PcXII, PcX, PcXVIII were prepared in dimethylformamide unless otherwise indicated and added to the 10 mL medium at a rate of 1 μL per mL. After allowing 18 hours for uptake of the phthalocyanine into the cells, the flasks containing the cultures were placed on a glass exposure tray above a 500-W tungsten-halogen lamp. The exposure tray was fitted with a 600-nm high-pass filter. Flasks were exposed to various fluences of red light (up to 30 kJ/m^2) at a fluence rate of approximately 74 W/m^2). After irradiation, the cells were collected by centrifugation.
For measurement of clonogenic cell survival, aliquots were plated in medium containing soft agar as described in Ramakrishnan N., Oleinick, N. L. Clay, M. E., Homg, M. F., Antunez, A. R., and Evans H. H., Photochem. Photobiol. 50, 373-378, 1989. The aliquots were plated in sufficient numbers to produce 50-200 colonies. The dishes were kept in an incubator at 37° C. in an atmosphere of 5% CO2 and 95% air for 10-14 days to allow viable cells to form colonies. Colonies were counted by eye. Controls treated with the phthalocyanine alone had plating efficiencies of about […]. The plating efficiencies of the treated cells are normalized to the plating efficiencies of control cells in each experiment. For measurement of the induction of apoptosis, DNA was isolated from the treated and control cells 2 hours after photodynamic therapy, subjected to electrophoresis on 1.5% agarose, stained with ethidium bromide, and visualized by UV transillumination, as described in Agarwal et al. The results are shown in Tables 4, 5 and 6 and in FIG. 3.

[5] = 1 mg/kg in corn oil, 135 J/cm^2, light 24 h after dosing
[6] = 1 mg/kg in corn oil, 135 J/cm^2
[7] = 5 mg/kg in phosphate buffered saline, 135 J/cm^2

CN1CCN(CCC[Si](C)(C)O[Si]2(O)n3c4c5ccccc5c3N=C3N=C(N=c5c6ccccc6c(n52)=NC2=NC(=N4)c4ccccc42)c2ccccc23)CC1 (stereo not drawn) [Compound XXVIII, HOSiPcOSi(CH3)2(CH2)3NC4H8NCH3]
Uptake Into V79 Cells, 1 μM ([1]; 18 hours): 1.2 ± 0.2 n Moles/10^6 cells | Uptake Into V79 Cells, 2 μM ([1]; 2 μM, 18 hours): 3.6 ± 1.0 n Moles/10^6 cells | Uptake Into V79 Cells, 4 μM ([1]; 18 hours): 11.4 ± 0.05 n Moles/10^6 cells | n Moles/10^6 Cells/μM (composite uptake value) [1]: 1.2* n Moles/10^6 Cells/μM | LD 90 (light dosage that kills 90% of cells) [2]: 1.8 kj/m^2 | Fluence, Minimum Demonstrated Condition to Induce Apoptosis (L5178Y cells; 0.3 μM): 3.0 kJ/m^2 | C × F Ld90, Minimum Demonstrated Condition to Induce Apoptosis (L5178Y cells; 0.3 μM): 0.9 kJ/m^2 | Tumor Responses at 24 hours [3, 5]: complete | Doubling Time of Initial Tumor Volume after PDT [3, 6]: 24 days

chloroaluminum phthalocyanine tetrasulfonate [AlPcTS, reference compound]
Tumor Responses at 24 hours [3, 7]: substantial | Doubling Time of Initial Tumor Volume after PDT [3, 7]: 7 days

C[Si](C)(CCCCNS(C)(=O)=O)O[Si]1(O[Si](C)(C)CCCCNS(C)(=O)=O)n2c3c4ccccc4c2N=C2N=C(N=c4c5ccccc5c(n41)=NC1=NC(=N3)c3ccccc31)c1ccccc12 [Compound VIII, SiPc[OSi(CH3)2(CH2)4NHSO2CH3]2]
Uptake Into V79 Cells, 1 μM ([1]; 18 hours): 0.1 ± 0.04 n Moles/10^6 cells | Uptake Into V79 Cells, 4 μM ([1]; 18 hours): 0.8 ± 0.01 n Moles/10^6 cells | n Moles/10^6 Cells/μM (composite uptake value) [1]: 0.2 n Moles/10^6 Cells/μM | Maximum Effect (% survival at kj/m^2) ([2]; 1 μM, at 30 kj/m^2): 94% at 30 | induction of apoptosis (L5178Y cells; 1 μM at a fluence of 30 kJ/m^2): did not induce apoptosis | Tumor Responses at 24 hours [3, 5]: slight | Doubling Time of Initial Tumor Volume after PDT [3, 6]: 4 days

CCN(CCC[Si](C)(C)O[Si]1(O)n2c3c4ccccc4c2N=C2N=C(N=c4c5ccccc5c(n41)=NC1=NC(=N3)c3ccccc31)c1ccccc12)CCN(C)C (stereo not drawn) [Compound X, HOSiPcOSi(CH3)2(CH2)3N(CH2CH3)(CH2)2N(CH3)2]
Uptake Into V79 Cells, 1 μM ([1]; 18 hours): 0.6 ± 0.2 n Moles/10^6 cells | Uptake Into V79 Cells, 4 μM ([1]; 18 hours): 3.3 ± 1.4 n Moles/10^6 cells | n Moles/10^6 Cells/μM (composite uptake value) [1]: 0.7 n Moles/10^6 Cells/μM | LD 90 (light dosage that kills 90% of cells) [2]: 7 kj/m^2 | Ld50 (fluence that reduces cell survival to 50%) [4]: 2.38 kJ/m^2 | Ld90 (fluence that reduces cell survival to 10%) [4]: 4.19 kJ/m^2 | activity relative to PcXII ([4]; from LD50/LD90 fluences): 44% | normalized plating efficiency, AVG. ([4]; light dose 0 kJ/m^2): 100 | normalized plating efficiency, AVG. ([4]; light dose 2 kJ/m^2): 71.8 | normalized plating efficiency, AVG. ([4]; light dose 3 kJ/m^2): 30.1 | normalized plating efficiency, AVG. ([4]; light dose 4 kJ/m^2): 20.5 | normalized plating efficiency, AVG. ([4]; light dose 5 kJ/m^2): 0.43 | normalized plating efficiency, AVG. ([4]; light dose 6 kJ/m^2): 0.031 | normalized plating efficiency, AVG. ([4]; light dose 8 kJ/m^2): 0.00058 | Fluence, Minimum Demonstrated Condition to Induce Apoptosis (L5178Y cells; 0.5 μM): 6.0 kJ/m^2 | C × F Ld90, Minimum Demonstrated Condition to Induce Apoptosis (L5178Y cells; 0.5 μM): 3.0 kJ/m^2 | Fluence, Minimum Demonstrated Condition to Induce Apoptosis (L5178Y cells; 1.0 μM): 3.0 kJ/m^2 | C × F Ld90, Minimum Demonstrated Condition to Induce Apoptosis (L5178Y cells; 1.0 μM): 3.0 kJ/m^2
